Measured values reported in ChEMBL document CHEMBL1201862, “PubChem BioAssay data set” (2004).
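How tested: cells in 96-well plates exposed to compound for 48 hours at five concentrations. Abbreviation: GI50, concentration required for 50% inhibition of growth.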 Activity calls are given as the source filed them. No stated cut-off is given here; in the data, active = GI50 up to about 1.1 µM and inactive = higher.

Legend:
Test in all cases: DTP human tumour cell line panel, 48 h
[1] = tested on: TK-10
[2] = tested on: HL-60
[3] = tested on: HCT-15
[4] = tested on: SNB-19
[5] = tested on: KM12
[6] = tested on: 786-0
[7] = tested on: MDA-MB-435
[8] = tested on: COLO 205
[9] = tested on: CAKI-1
[10] = tested on: HT-29
[11] = tested on: SNB-75
[12] = tested on: UO-31
[13] = tested on: SK-MEL-5
[14] = tested on: NCI-H460
[15] = tested on: SF-295
[16] = tested on: NCI-H226
[17] = tested on: NCI-H23
[18] = tested on: HOP-92
[19] = tested on: NCI-H522
[20] = tested on: MDA-N

Compound | GI50 [1] | GI50 [2] | GI50 [3] [µM] | GI50 [4] | GI50 [5] | GI50 [6] | GI50 [7] | GI50 [8] | GI50 [9] | GI50 [10] | GI50 [11] | GI50 [12] | GI50 [13] | GI50 [14] | GI50 [15] | GI50 [16] | GI50 [17] | GI50 [18] | GI50 [19] | GI50 [20]
S=C(Nc1cccc(Cl)c1)Nc1ccccn1 | > 100 µM (inactive) | > 100 µM (inactive) | > 100 | > 100 µM (inactive) | 13.5 µM (inactive) | > 100 µM (inactive) | > 100 µM (inactive) | > 100 µM (inactive) | > 100 µM (inactive) | > 100 µM (inactive) | 1.14 µM (inactive) | > 100 µM (inactive) | > 100 µM (inactive) | > 100 µM (inactive) | > 100 µM (inactive) | > 100 µM (inactive) |  |  |  | 
C=CCC1(CN(C)C)CC/C(=C\c2cc(OC)c(OC)c(OC)c2)C1=O (stereo not given) | 18.8 µM (inactive) | 6.81 µM (inactive) | 20 | 34 µM (inactive) | 17.4 µM (inactive) | 19.4 µM (inactive) |  | 17 µM (inactive) | 19.4 µM (inactive) | 20.5 µM (inactive) | 62.2 µM (inactive) | 26.5 µM (inactive) | 20 µM (inactive) | 18.8 µM (inactive) | 38.1 µM (inactive) | 52.4 µM (inactive) | 35 µM (inactive) | 90.6 µM (inactive) | 15.1 µM (inactive) | 
CC(C)(C)OC(=O)N(CCCCNC(=O)OCc1ccccc1)CCCNC(=O)OCc1ccccc1 | > 100 µM (inactive) | 5.28 µM (inactive) | > 100 | > 100 µM (inactive) | 35.5 µM (inactive) | 91 µM (inactive) | 35.8 µM (inactive) | 16.5 µM (inactive) | 1.96 µM (inactive) | 18.5 µM (inactive) | 51.9 µM (inactive) | 5.7 µM (inactive) | 5.93 µM (inactive) | 38.2 µM (inactive) | 25.9 µM (inactive) | > 100 µM (inactive) | 21.6 µM (inactive) | 23.4 µM (inactive) | 4.06 µM (inactive) | 
CC1(C)CCCCCC(C)(CCCO)C1=O (stereo not given) |  | > 100 µM (inactive) | > 100 | > 100 µM (inactive) | > 100 µM (inactive) | > 100 µM (inactive) | > 100 µM (inactive) | > 100 µM (inactive) | > 100 µM (inactive) | > 100 µM (inactive) | > 100 µM (inactive) | > 100 µM (inactive) | > 100 µM (inactive) | > 100 µM (inactive) | > 100 µM (inactive) | > 100 µM (inactive) | > 100 µM (inactive) | > 100 µM (inactive) | > 100 µM (inactive) | 
CCCCCCCCCCC[N+]1(Cc2ccccc2)CC2CCN(Cc3ccccc3)CC2C1 (stereo not given) | 1.29 µM (inactive) | 0.106 µM (active) | 1.52 | 0.371 µM (active) | 0.247 µM (active) | 1.03 µM (active) |  | 1.01 µM (active) | 1.4 µM (inactive) | 0.377 µM (active) | 1.15 µM (inactive) | 1.3 µM (inactive) | 0.173 µM (active) | 1.29 µM (inactive) | 1.09 µM (active) | 0.67 µM (active) | 0.181 µM (active) | 0.451 µM (active) | 0.106 µM (active) | 0.233 µM (active)
O=C(c1ccccc1)c1c(C(=O)c2ccccc2)c(-c2ccccc2)c2c(-c3ccccc3)sc(-c3ccccc3)c2c1-c1ccccc1 | > 100 µM (inactive) | > 100 µM (inactive) | > 100 | > 100 µM (inactive) | > 100 µM (inactive) | > 100 µM (inactive) |  | > 100 µM (inactive) | > 100 µM (inactive) | > 100 µM (inactive) | > 100 µM (inactive) | > 100 µM (inactive) | > 100 µM (inactive) | > 100 µM (inactive) | > 100 µM (inactive) | > 100 µM (inactive) | > 100 µM (inactive) | > 100 µM (inactive) | > 100 µM (inactive) | 
O=CN/C=C\c1cc(O)ccc1O | > 46.2 µM (inactive) | 10.4 µM (inactive) | 9.31 | > 100 µM (inactive) | > 22.5 µM (inactive) | 15.8 µM (inactive) |  | 14.2 µM (inactive) | 12.7 µM (inactive) | 16.9 µM (inactive) | > 100 µM (inactive) | 13.8 µM (inactive) | 7.59 µM (inactive) | 10 µM (inactive) | 28.4 µM (inactive) | 14.5 µM (inactive) | 15.8 µM (inactive) | 14.2 µM (inactive) | 4.99 µM (inactive) | 
CCCNC1=NC(C)=CSC(Nc2ccccc2)=C1C#N | > 100 µM (inactive) |  | > 100 | > 100 µM (inactive) | > 100 µM (inactive) | > 100 µM (inactive) | > 100 µM (inactive) | > 100 µM (inactive) | > 100 µM (inactive) |  |  | > 100 µM (inactive) | > 100 µM (inactive) |  | > 100 µM (inactive) |  | > 100 µM (inactive) |  | > 100 µM (inactive) | > 100 µM (inactive)
O=C/C(=C(/Cl)c1ccc(O)cc1)c1ccccc1 | 29 µM (inactive) | 38.5 µM (inactive) | 16.1 | 41.2 µM (inactive) | 35.6 µM (inactive) | 27.8 µM (inactive) |  | 23 µM (inactive) | 27.4 µM (inactive) | 27.1 µM (inactive) | 15.3 µM (inactive) | 21 µM (inactive) | 23 µM (inactive) | 33.2 µM (inactive) | 33.3 µM (inactive) | > 100 µM (inactive) | 24.4 µM (inactive) | 16.6 µM (inactive) | 13.3 µM (inactive) | 
C[N+]1(C)CCCC(C#N)(c2ccccc2)CC1 (stereo not given) | > 100 µM (inactive) | > 100 µM (inactive) | > 100 | > 100 µM (inactive) | > 100 µM (inactive) | > 100 µM (inactive) |  | > 100 µM (inactive) | > 100 µM (inactive) | > 100 µM (inactive) | > 100 µM (inactive) | > 100 µM (inactive) | > 100 µM (inactive) | > 100 µM (inactive) | > 100 µM (inactive) |  | > 100 µM (inactive) | > 100 µM (inactive) |  | > 100 µM (inactive)
CCOC(=O)C1=C(Nc2cccc3ccccc23)OC/C1=N\NC(=O)c1ccccc1O | 21.1 µM (inactive) | 6.93 µM (inactive) | 14.7 | 22.1 µM (inactive) | 25.3 µM (inactive) | 21 µM (inactive) |  | 15.5 µM (inactive) | 7.28 µM (inactive) | 29.7 µM (inactive) | 3.39 µM (inactive) | 4.88 µM (inactive) | 12.9 µM (inactive) | 14.8 µM (inactive) | 22.8 µM (inactive) | 22.3 µM (inactive) | 4.09 µM (inactive) | 11.1 µM (inactive) | 7.64 µM (inactive) | 
O=S1(=O)C[C@H](O)[C@H](O)CS1 | > 100 µM (inactive) | > 100 µM (inactive) |  | > 100 µM (inactive) | > 100 µM (inactive) | > 100 µM (inactive) |  | > 100 µM (inactive) | > 100 µM (inactive) | > 100 µM (inactive) | > 100 µM (inactive) | > 100 µM (inactive) | > 100 µM (inactive) | > 100 µM (inactive) | > 100 µM (inactive) | > 100 µM (inactive) | > 100 µM (inactive) | > 100 µM (inactive) | > 100 µM (inactive) | 
COc1ccccc1/C=C\c1cc(OC)c(OC)c(OC)c1 | 43.6 µM (inactive) | 3.22 µM (inactive) | 4.2 | 39.4 µM (inactive) | 6.89 µM (inactive) | 31.2 µM (inactive) |  | 4.46 µM (inactive) | 8.22 µM (inactive) | 3.97 µM (inactive) | 10.7 µM (inactive) | 16.1 µM (inactive) | 4.33 µM (inactive) | 6.85 µM (inactive) | 4.83 µM (inactive) | 19.2 µM (inactive) |  | 8.65 µM (inactive) | 6.14 µM (inactive) | 
BrC(Br)([P+](c1ccccc1)(c1ccccc1)c1ccccc1)[P+](c1ccccc1)(c1ccccc1)c1ccccc1 | 14.1 µM (inactive) | 7.94 µM (inactive) | 20.4 |  |  | 13.5 µM (inactive) |  | 16.4 µM (inactive) | 7.98 µM (inactive) | 13.6 µM (inactive) | 19.4 µM (inactive) | 23.6 µM (inactive) | 15.9 µM (inactive) | 22.8 µM (inactive) | 29.4 µM (inactive) | 20.3 µM (inactive) | 16.8 µM (inactive) | 11.1 µM (inactive) | 15 µM (inactive) | 
CC(C)=Cc1cc2c(cc1O)CCC1C2CC[C@@]2(C)C1CC[C@@H]2O (stereo not given in full) | 3.16 µM (inactive) | 15.2 µM (inactive) | 8.89 | 11.6 µM (inactive) | 11.8 µM (inactive) | 12.4 µM (inactive) |  | 18.4 µM (inactive) | 13.5 µM (inactive) | 14.9 µM (inactive) | 3.56 µM (inactive) | 13.3 µM (inactive) | 6.24 µM (inactive) | 12 µM (inactive) | 2.26 µM (inactive) | 8.81 µM (inactive) | 15.8 µM (inactive) | 21.3 µM (inactive) | 5.35 µM (inactive) | 2.44 µM (inactive)
CC(C)C1=Cc2ccc3c(c2C(=O)C1=O)CCCC3(C)C [MILTIRONE] | 3.14 µM (inactive) | 2.37 µM (inactive) | 1.99 | 17.2 µM (inactive) | 16.1 µM (inactive) | 5.65 µM (inactive) |  | 4.19 µM (inactive) | 2.47 µM (inactive) | 20.1 µM (inactive) | 15.3 µM (inactive) | 6.64 µM (inactive) | 12.3 µM (inactive) | 17.3 µM (inactive) | 17.2 µM (inactive) | 20.5 µM (inactive) | 13.7 µM (inactive) | 4.18 µM (inactive) | 1.79 µM (inactive) | 
